Molecules are shown by their SMILES. Square brackets hold non-standard residues; d marks the D form. Peptide text beside a SMILES is read from it. * marks the point of attachment. pGlu = O=C1CC[C@@H](C(=O)O)N1; Boc = CC(C)(C)OC(=O)*; Bz = O=C(c1ccccc1)*; ClAc = O=C(CCl)*

The source of these data is patent US4276378A, “High sensitivity assays for angiotensin converting enzyme” (priority 1977, dated 1981).

Data set [1] has as its target T1, ACE (Oryctolagus cuniculus, UniProt P12822).
T1 sequence (P12822 34-1310): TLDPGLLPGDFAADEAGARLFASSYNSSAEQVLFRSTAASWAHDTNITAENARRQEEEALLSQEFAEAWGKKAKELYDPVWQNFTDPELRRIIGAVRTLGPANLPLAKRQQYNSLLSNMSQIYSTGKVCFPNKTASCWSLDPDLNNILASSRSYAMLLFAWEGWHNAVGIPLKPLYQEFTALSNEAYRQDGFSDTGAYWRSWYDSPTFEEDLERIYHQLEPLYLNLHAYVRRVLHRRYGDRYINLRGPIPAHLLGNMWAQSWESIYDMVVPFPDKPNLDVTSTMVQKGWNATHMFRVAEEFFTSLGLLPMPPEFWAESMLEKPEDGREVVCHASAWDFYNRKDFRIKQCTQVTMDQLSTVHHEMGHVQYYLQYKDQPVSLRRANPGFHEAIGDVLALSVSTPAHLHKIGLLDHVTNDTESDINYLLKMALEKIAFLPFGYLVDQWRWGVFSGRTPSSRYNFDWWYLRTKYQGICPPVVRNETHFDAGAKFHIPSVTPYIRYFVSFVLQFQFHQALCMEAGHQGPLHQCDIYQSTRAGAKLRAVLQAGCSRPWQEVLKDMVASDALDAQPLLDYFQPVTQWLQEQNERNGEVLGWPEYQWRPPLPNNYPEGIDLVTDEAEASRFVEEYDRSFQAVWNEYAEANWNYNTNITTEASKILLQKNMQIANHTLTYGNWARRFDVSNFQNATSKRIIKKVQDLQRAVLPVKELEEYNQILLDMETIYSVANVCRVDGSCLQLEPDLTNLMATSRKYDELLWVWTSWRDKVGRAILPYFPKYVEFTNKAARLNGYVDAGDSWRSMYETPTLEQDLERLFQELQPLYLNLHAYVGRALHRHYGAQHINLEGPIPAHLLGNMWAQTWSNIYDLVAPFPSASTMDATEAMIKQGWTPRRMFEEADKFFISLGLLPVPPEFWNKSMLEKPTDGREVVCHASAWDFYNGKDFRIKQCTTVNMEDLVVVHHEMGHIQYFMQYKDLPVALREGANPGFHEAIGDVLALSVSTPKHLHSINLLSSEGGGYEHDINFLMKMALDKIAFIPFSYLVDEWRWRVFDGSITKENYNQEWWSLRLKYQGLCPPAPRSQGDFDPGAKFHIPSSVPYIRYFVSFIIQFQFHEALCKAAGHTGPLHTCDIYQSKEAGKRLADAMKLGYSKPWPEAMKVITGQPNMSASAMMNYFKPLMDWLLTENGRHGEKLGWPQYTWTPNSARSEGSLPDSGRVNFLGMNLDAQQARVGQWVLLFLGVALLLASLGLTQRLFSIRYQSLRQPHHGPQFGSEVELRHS
The following applies: cited from earlier work.

Data set [2] deals with enzyme isolated from hog lung (ACE). The following applies: cited from earlier work.
In data set [3] the target is T1, ACE. To be noted: compared with a buffer presumably lacking chloride; cited from earlier work.
A short description of data set [4]: Solvent extraction of substrate and remnant product from acidified reaction mixture. The class given is physicochemical. To be noted: toluene and acidified reaction mixture in approximately equal volumes at room temperature. The text has this:
While a variety of organic solvents may be suitable for the extraction step, it is preferred to employ toluene.

[5] abbreviates: sulfate ion 0.6 M in the presence of 0.1 M chloride, pH 8.

`C[C@H](NC(=O)[C@H](Cc1c[nH]c2ccccc12)NC(=O)[C@H](CCCCN)NC(=O)[C@@H]1CCC(=O)N1)C(=O)O` [<GluLysTrpAla] ([pGlu]KWA-OH): the ACE inhibition entry at ACE [1] is “ACE inhibitors”.
Consider `C[C@H](NC(=O)[C@H](Cc1c[nH]c2ccccc12)NC(=O)[C@@H]1CCC(=O)N1)C(=O)N1CCC[C@H]1C(=O)O` [<GluTrpAlaPro] ([pGlu]WAP-OH), for which the ACE inhibition entry on ACE [1] is “ACE inhibitors”.
As for `O=C(O)CNC(=O)CNC(=O)CNC(=O)c1ccccc1` [HipGlyGly] (Bz-Gly-Gly-Gly-OH), in data set [2] (Na2 SO4 0.001 M to 0.6 M, no NaCl), the “hydrolysis in the absence of NaCl” value is given as “no hydrolysis”. Besides, in data set [2] (setting [5]), the “decrease of Km by sulfate” value was “about 15%” and the “increase of Vmax by sulfate” value was “about 5 fold”.
On to `C[C@H](NC(=O)[C@@H](N)Cc1ccccc1)C(=O)N1CCC[C@H]1C(=O)O` [PheAlaPro] (H-Phe-Ala-Pro-OH), for which the ACE inhibition entry at ACE [1] is given as “inhibit ACE”.
Turning to `C[C@H](NC(=O)[C@H](Cc1c[nH]c2ccccc12)NC(=O)[C@H](CCCCN)NC(=O)[C@@H]1CCC(=O)N1)C(=O)N1CCC[C@H]1C(=O)O` [SQ20475, <GluLysTrpAlaPro] ([pGlu]KWAP-OH), the “rate of cleavage in the presence of chloride” value on ACE [3] is listed as “more slowly”.
As to `O=C(N[C@@H](Cc1ccccc1)C(=O)O)c1ccccc1` [^3 H-benzoylPhe, benzoylPhe], the “fraction entering the toluene phase” value in data set [4] is “Approximately 88%”.
Consider `C[C@H](NC(=O)[C@H](Cc1ccccc1)NC(=O)CCl)C(=O)N1CCC[C@H]1C(=O)O` [chloroacetylPheAlaPro] (ClAc-Phe-Ala-Pro-OH), for which, at ACE [1], the ACE inhibition result is “ACE inhibitors”.
`C[C@H](NC(=O)[C@H](Cc1ccccc1)NC(=O)OC(C)(C)C)C(=O)N1CCC[C@H]1C(=O)O` [t-butyloxycarbonylPheAlaPro] (Boc-Phe-Ala-Pro-OH): the ACE inhibition entry at ACE [1] is “inhibit ACE”.
